Tested on: A375 cells
Experiment: Assay 1: A375 cells treated with S1152, S1008 and compound, immunofluorescence (sc-365823) signal
Format: cell-based
Details: 1 μM S1152 + 0.5 μM S1008, one day
Description: One thousand four hundred A375 cells were seeded in each well of a 384 well microplate. One day later they were treated with 1 μM S1152 (Selleckchem) in dimethyl sulfoxide, 0.5 μM S1008 (Selleckchem) and dose ranges of invention compounds for one day in Dulbecco's Modified Eagle's Medium supplemented with 10% fetal calf serum and 2 mM (2S)-2-amino-4-carbamoylbutanoic acid. Wells were incubated with 4% polyoxymethylene (Sigma Aldrich 158127) at ambient temperature. […] After one minute phosphate-buffered saline was replaced with 0.2% polyethylene glycol octylphenyl ether in phosphate-buffered saline. […] 1% aminoethanoic acid in phosphate-buffered saline was added for ten minutes at ambient temperature. […] After one hour at ambient temperature in the dark, signal in wells was measured with a Acumen Cellista. 3,8-Diamino-5-[3-(diethylmethylammonio)propyl]-6-phenylphenanthridinium diiodide-positive objects were defined in FL3 (565-600 nm) with a perimeter between 50-800 μm and a total intensity of 10000-1000000 FLU. Signal in FL2 (500-530 nm) was measured in defined objects. A normalized ratio of total In FL2 over total In FL3 staining was log transformed. A non-linear regression (variable slope, 4 parameters) was used to calculate EC50 values using GraphPad Prism (Version 7.0d).
In an alternative procedure, assay 1 has been affected by changing the counteratain. […] Cells were incubated with 0.5 μg/ml 2-(4-Amidinophenyl)-6-indolecarbamidine dihydrochloride, 4′,6-Diamidino-2-phenylindole dihydrochloride (Sigma D9542) in phosphate-buffered saline for at least 30 minutes at ambient temperature in the dark. A Celigo Imager (Nexcelom) was used to acquire images in the blue and green channel. The blue channel was used as a mask to define the area for the green signal. The average integrated intensity of the green signal was normalized and a non-linear regression (variable slope, 4 parameter) was used to calculate the EC50 values using GraphPad Prism (Version 8.4)

How did the EC50 turn out when `CC(=O)N1C[C@H](c2nc(Nc3cncc(N4CCCC4=O)c3)cc(-c3cccnc3)n2)CC[C@@H]1C` [Compound 00135, 1-(5-((2-((3R,6S)-1-acetyl-6-methylpiperidin-3-yl)-6-(pyridin-3-yl)pyrimidin-4-yl)amino)pyridin-3-yl)pyrrolidin-2-one] was run?
Its EC50 is 1000 to 10000 nM.

How did the EC50 turn out when `COc1cc(-c2cc(Nc3ccnc(C)c3)nc([C@@H]3CC[C@H](C)N(C(C)=O)C3)n2)cnc1OC` [Compound 00110, 1-((2S,5R)-5-(4-(5,6-dimethoxypyridin-3-yl)-6-((2-methylpyridin-4-yl)amino)pyrimidin-2-yl)-2-methylpiperidin-1-yl)ethan-1-one] was run?
The EC50 was greater than 10000 nM.

How did the EC50 turn out when `CC(=O)N1C[C@H](c2nc(Nc3ccc4nccnc4c3)cc(-c3cccnc3)n2)CC[C@@H]1C` [Compound 00120, 1-((2S,5R)-2-methyl-5-(4-(pyridin-3-yl)-6-(quinoxalin-6-ylamino)pyrimidin-2-yl)piperidin-1-yl)ethan-1-one] was run?
Its EC50 is less than 200 nM.

How did the EC50 turn out when `CC(=O)N1C[C@H](c2nc(Nc3ccnc(C)c3)cc(-c3cncc(C(=O)N(C)C)c3)n2)CC[C@@H]1C` [Compound 00109, 5-(2-((3R,6S)-1-acetyl-6-methylpiperidin-3-yl)-6-((2-methylpyridin-4-yl)amino)pyrimidin-4-yl)-N,N-dimethylnicotinamide] was run?
Its EC50 is greater than 10000 nM.

Which EC50 does the source give for `COc1cncc(-c2cc(Nc3cccc(Cl)c3)nc([C@@H]3CC[C@H](C)N(C(C)=O)C3)n2)c1` (racemic) [Compound 00016, (+/−)-cis-1-(5-(4-((3-chlorophenyl)amino)-6-(5-methoxypyridin-3-yl)pyrimidin-2-yl)-2-methylpiperidin-1-yl)ethan-1-one] here?
The EC50 was less than 200 nM.

How did the EC50 turn out when `CC(=O)N1C[C@H](c2nc(Nc3ccc(O)cc3)cc(-c3cccnc3)n2)CC[C@@H]1C` [Compound 00071, 1-((2S,5R)-5-(4-((4-hydroxyphenyl)amino)-6-(pyridin-3-yl)pyrimidin-2-yl)-2-methylpiperidin-1-yl)ethan-1-one] was run?
The EC50 was 200 to 1000 nM.

How did the EC50 turn out when `[2H]C([2H])([2H])[C@@H]1CC[C@H](c2nc(Nc3cncc(C)c3)cc(-c3cnccn3)n2)CN1C(C)=O` [Compound 00011] was run?
Its EC50 is greater than 10000 nM.

`CC(=O)N1C[C@H](c2nc(Nc3cc(F)cc(-c4nnco4)c3)cc(-c3cccnc3)n2)CC[C@@H]1C` [Compound 00166, 1-((2S,5R)-5-(4-((3-fluoro-5-(1,3,4-oxadiazol-2-yl)phenyl)amino)-6-(pyridin-3-yl)pyrimidin-2-yl)-2-methylpiperidin-1-yl)ethan-1-one] was tested. Which EC50 did it give?
Its EC50 is less than 200 nM.

How did the EC50 turn out when `[2H]C([2H])([2H])[C@H]1CC[C@@H](c2nc(Nc3cccc(F)c3)cc(-c3cccnc3)n2)CN1C(C)=O` [Compound 00010] was run?
Its EC50 is less than 200 nM.

Which EC50 does the source give for `CC(=O)N1C[C@H](c2nc(Nc3cccc(F)c3)cc(-c3cncc(O)c3)n2)CC[C@@H]1C` (stereo in doubt) [Compound 00005] here?
Its EC50 is less than 200 nM.

Which EC50 does the source give for `CC(=O)N1C[C@H](c2nc(Nc3ccnc(C)c3)cc(-c3cncc(N4CC(C(N)=O)C4)c3)n2)CC[C@@H]1C` [Compound 00114, 1-(5-(2-((3R,6S)-1-acetyl-6-methylpiperidin-3-yl)-6-((2-methylpyridin-4-yl)amino)pyrimidin-4-yl)pyridin-3-yl)azetidine-3-carboxamide] here?
The EC50 was greater than 10000 nM.

How did the EC50 turn out when `CC(=O)N1C[C@H](c2nc(Nc3ccc4ncncc4c3)cc(-c3cccnc3)n2)CC[C@@H]1C` [Compound 00121, 1-((2S,5R)-2-methyl-5-(4-(pyridin-3-yl)-6-(quinazolin-6-ylamino)pyrimidin-2-yl)piperidin-1-yl)ethan-1-one] was run?
Its EC50 is less than 200 nM.

With `CC(=O)N1C[C@H](c2nc(Nc3cncc(C(F)F)c3)cc(-c3cnccn3)n2)CC[C@@H]1C` [Compound 00129, 1-((2S,5R)-5-(4-((5-(difluoromethyl)pyridin-3-yl)amino)-6-(pyrazin-2-yl)pyrimidin-2-yl)-2-methylpiperidin-1-yl)ethan-1-one] as the compound, how does the EC50 read?
The EC50 was less than 200 nM.

Which EC50 does the source give for `CC(=O)N1C[C@H](c2nc(Nc3ccc4c(c3)NC(=O)C4)cc(-c3cccnc3)n2)CC[C@@H]1C` [Compound 00076, 6-((2-((3R,6S)-1-acetyl-6-methylpiperidin-3-yl)-6-(pyridin-3-yl)pyrimidin-4-yl)amino)indolin-2-one] here?
The EC50 was 200 to 1000 nM.

`CC(=O)N1C[C@H](c2nc(Nc3cccc(C)c3)cc(-c3cccnc3)n2)CC[C@@H]1C(F)(F)F` (racemic) [Compound 00022, (+/−)-c/s-1-(5-(4-(pyridin-3-yl)-6-(m-tolylamino)pyrimidin-2-yl)-2-(trifluoromethyl)piperidin-1-yl)ethan-1-one] was tested. Which EC50 did it give?
Its EC50 is 200 to 1000 nM.

`CC(=O)N1C[C@H](c2nc(Nc3ccc4nncnc4c3)cc(-c3cccnc3)n2)CC[C@@H]1C` [Compound 00122, 1-((2S,5R)-5-(4-(benzo[e][1,2,4]triazin-6-ylamino)-6-(pyridin-3-yl)pyrimidin-2-yl)-2-methylpiperidin-1-yl)ethan-1-one] was tested. Which EC50 did it give?
Its EC50 is 200 to 1000 nM.

How did the EC50 turn out when `CC(=O)N1C[C@H](c2nc(Nc3ccc4[nH]ccc4c3)cc(-c3cccnc3)n2)CC[C@@H]1C` [Compound 00028, 1-((2S,5R)-5-(4-((1H-indol-5-yl)amino)-6-(pyridin-3-yl)pyrimidin-2-yl)-2-methylpiperidin-1-yl)ethan-1-one] was run?
The EC50 was less than 200 nM.

How did the EC50 turn out when `CC(=O)N1C[C@H](c2nc(Nc3cccnc3)cc(-c3cccnc3)n2)CC[C@@H]1C` (racemic) [Compound 00102, (+/−)-cis-1-(2-methyl-5-(4-(pyridin-3-yl)-6-(pyridin-3-ylamino)pyrimidin-2-yl)piperidin-1-yl)ethan-1-one] was run?
The EC50 was 200 to 1000 nM.

With `CC(=O)N1C[C@H](c2nc(Nc3ccc4c(=O)[nH]ccc4c3)cc(-c3cccnc3)n2)CC[C@@H]1C` [Compound 00035, 6-((2-((3R,6S)-1-acetyl-6-methylpiperidin-3-yl)-6-(pyridin-3-yl)pyrimidin-4-yl)amino)isoquinolin-1(2H)-one] as the compound, how does the EC50 read?
The EC50 was less than 200 nM.

For `CC(=O)N1C[C@H](c2nc(Nc3ccc4nc[nH]c4c3)cc(-c3cccnc3)n2)CC[C@@H]1C` [Compound 00032, 1-((2S,5R)-5-(4-((1H-benzo[d]imidazol-6-yl)amino)-6-(pyridin-3-yl)pyrimidin-2-yl)-2-methylpiperidin-1-yl)ethan-1-one], which EC50 is on record?
The EC50 was 200 to 1000 nM.

Same assay, conditions: Homo sapiens, A-375, 24 h, 1 μM S1152 + 0.5 μM S1008, one day

`CC(=O)N1C[C@H](c2nc(Nc3cccc(F)c3)cc(-c3cccnc3)n2)CC[C@H]1C(F)F` (racemic) [Compound 00026, (+/−)-frans-1-(2-(difluoromethyl)-5-(4-((3-fluorophenyl)amino)-6-(pyridin-3-yl)pyrimidin-2-yl)piperidin-1-yl)ethan-1-one] was tested. Which EC50 did it give?
Its EC50 is greater than 10000 nM.

`CC(=O)N1C[C@H](c2nc(Nc3cccc(F)c3)cc(-c3cccnc3)n2)CC[C@@H]1C(F)F` (racemic) [Compound 00025, (+/−)-c/s-1-(2-(difluoromethyl)-5-(4-((3-fluorophenyl)amino)-6-(pyridin-3-yl)pyrimidin-2-yl)piperidin-1-yl)ethan-1-one] was tested. Which EC50 did it give?
Its EC50 is 1000 to 10000 nM.

For `CC[C@@H]1CC[C@@H](c2nc(Nc3cccc(F)c3)cc(-c3cccnc3)n2)CN1C(C)=O` (racemic) [Compound 00021, (+/−)-trans-1-(2-ethyl-5-(4-((3-fluorophenyl)amino)-6-(pyridin-3-yl)pyrimidin-2-yl)piperidin-1-yl)ethan-1-one], which EC50 is on record?
The EC50 was greater than 10000 nM.

With `COc1cncc(-c2cc(Nc3cncc(C)c3)nc([C@H]3CC[C@H](C)N(C(C)=O)C3)n2)c1` [Compound 00133, 1-((2S,5S)-5-(4-(5-methoxypyridin-3-yl)-6-((5-methylpyridin-3-yl)amino)pyrimidin-2-yl)-2-methylpiperidin-1-yl)ethan-1-one] as the compound, how does the EC50 read?
Its EC50 is greater than 10000 nM.
